In ChEMBL document CHEMBL1201862, “PubChem BioAssay data set” (2004):
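Protocol summary: plate cells (96-well), add compound at 5 concentrations, incubate 48 h, interpolate endpoints linearly. At the GI50, growth is halved.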 Calls of active or inactive are those of the source. Rule as the data show it: active = GI50 up to about 1.1 µM and inactive = higher.

Experiments:
Test in all cases: growth of human tumour cells (NCI), 48 h
[1] = tested on: 786-0
[2] = tested on: BT-549
[3] = tested on: CCRF-CEM
[4] = tested on: HCT-15
[5] = tested on: LOX IMVI
[6] = tested on: MDA-MB-231
[7] = tested on: MDA-MB-435
[8] = tested on: Malme-3M
[9] = tested on: NCI-H226
[10] = tested on: NCI-H23
[11] = tested on: OVCAR-3
[12] = tested on: PC-3
[13] = tested on: RPMI-8226
[14] = tested on: RXF 393
[15] = tested on: SF-268
[16] = tested on: SK-MEL-5
[17] = tested on: SK-OV-3
[18] = tested on: TK-10
[19] = tested on: U-251
[20] = tested on: UACC-62

## S=C(Nc1ccc2c(c1)Cc1ccccc1-2)Nc1ccc2c(c1)Cc1ccccc1-2
[1]
  GI50: > 100 µM (inactive)
[2]
  GI50: > 100 µM (inactive)
[3]
  GI50: 11.4 µM (inactive)
[4]
  GI50: > 100 µM
[5]
  GI50: > 100 µM (inactive)
[6]
  GI50: > 100 µM (inactive)
[7]
  GI50: > 100 µM (inactive)
[8]
  GI50: > 100 µM (inactive)
[9]
  GI50: > 100 µM (inactive)
[10]
  GI50: > 100 µM (inactive)
[11]
  GI50: > 100 µM (inactive)
[12]
  GI50: > 100 µM (inactive)
[13]
  GI50: > 100 µM (inactive)
[14]
  GI50: > 100 µM (inactive)
[15]
  GI50: > 100 µM (inactive)
[16]
  GI50: > 100 µM (inactive)
[17]
  GI50: > 100 µM (inactive)
[18]
  GI50: > 100 µM (inactive)
[19]
  GI50: > 100 µM (inactive)
[20]
  GI50: > 100 µM (inactive)

## c1ccc(CCCNc2nnnc3ccccc23)cc1
[1]
  GI50: > 100 µM (inactive)
[2]
  GI50: > 100 µM (inactive)
[3]
  GI50: 73.8 µM (inactive)
[4]
  GI50: > 100 µM
[5]
  GI50: 99.5 µM (inactive)
[6]
  GI50: > 100 µM (inactive)
[7]
  GI50: 55.1 µM (inactive)
[8]
  GI50: 58.2 µM (inactive)
[9]
  GI50: > 100 µM (inactive)
[10]
  GI50: 70.3 µM (inactive)
[11]
  GI50: > 100 µM (inactive)
[12]
  GI50: > 100 µM (inactive)
[13]
  GI50: 35.8 µM (inactive)
[14]
  GI50: 43.4 µM (inactive)
[15]
  GI50: > 100 µM (inactive)
[16]
  GI50: 32.4 µM (inactive)
[17]
  GI50: > 100 µM (inactive)
[18]
  GI50: > 100 µM (inactive)
[19]
  GI50: > 100 µM (inactive)
[20]
  GI50: 36 µM (inactive)

## O=[N+]([O-])c1cccnc1-n1cnc2ccccc21
[1]
  GI50: > 100 µM (inactive)
[2]
  GI50: > 100 µM (inactive)
[3]
  GI50: > 100 µM (inactive)
[4]
  GI50: > 100 µM
[5]
  GI50: > 100 µM (inactive)
[6]
  GI50: > 100 µM (inactive)
[7]
  GI50: > 100 µM (inactive)
[8]
  GI50: > 100 µM (inactive)
[9]
  GI50: > 100 µM (inactive)
[11]
  GI50: 54.6 µM (inactive)
[12]
  GI50: > 100 µM (inactive)
[13]
  GI50: > 100 µM (inactive)
[14]
  GI50: > 100 µM (inactive)
[15]
  GI50: > 100 µM (inactive)
[16]
  GI50: > 100 µM (inactive)
[17]
  GI50: > 100 µM (inactive)
[18]
  GI50: > 100 µM (inactive)
[19]
  GI50: > 100 µM (inactive)
[20]
  GI50: > 100 µM (inactive)

## O=C(Cn1c(C(=O)c2ccccc2)nc2ccccc21)c1ccccc1
[1]
  GI50: > 63.8 µM (inactive)
[2]
  GI50: > 100 µM (inactive)
[3]
  GI50: > 100 µM (inactive)
[4]
  GI50: > 100 µM
[5]
  GI50: > 100 µM (inactive)
[6]
  GI50: > 100 µM (inactive)
[7]
  GI50: 3.72 µM (inactive)
[8]
  GI50: > 96.2 µM (inactive)
[9]
  GI50: > 100 µM (inactive)
[10]
  GI50: > 100 µM (inactive)
[11]
  GI50: > 100 µM (inactive)
[12]
  GI50: > 72.4 µM (inactive)
[13]
  GI50: > 100 µM (inactive)
[14]
  GI50: > 100 µM (inactive)
[15]
  GI50: > 100 µM (inactive)
[16]
  GI50: > 100 µM (inactive)
[17]
  GI50: > 100 µM (inactive)
[18]
  GI50: > 100 µM (inactive)
[19]
  GI50: > 77.1 µM (inactive)
[20]
  GI50: > 56.6 µM (inactive)

## O=C1C=CC2(O[C@H](c3ccccc3)[C@@H](c3ccccc3)O2)[C@H](Sc2ccccc2O)C1
[1]
  GI50: 0.15 µM (active)
[2]
  GI50: 0.502 µM (active)
[3]
  GI50: < 0.0156 µM (active)
[4]
  GI50: 0.221 µM
[5]
  GI50: 0.163 µM (active)
[6]
  GI50: 0.839 µM (active)
[7]
  GI50: 0.309 µM (active)
[8]
  GI50: 0.294 µM (active)
[9]
  GI50: 2.72 µM (inactive)
[10]
  GI50: 0.708 µM (active)
[11]
  GI50: 0.418 µM (active)
[12]
  GI50: 0.7 µM (active)
[13]
  GI50: 0.0424 µM (active)
[14]
  GI50: 0.238 µM (active)
[15]
  GI50: 0.29 µM (active)
[16]
  GI50: 0.993 µM (active)
[17]
  GI50: 3.27 µM (inactive)
[18]
  GI50: 0.29 µM (active)
[19]
  GI50: 0.498 µM (active)
[20]
  GI50: 0.841 µM (active)

## O=C(CC(=O)Nc1ccccc1)NNC(c1cc(/N=N/c2ccc(Br)cc2)ccc1O)P(O)O (centres undefined)
[1]
  GI50: 0.489 µM (active)
[2]
  GI50: 4 µM (inactive)
[3]
  GI50: 0.322 µM (active)
[4]
  GI50: 0.425 µM
[5]
  GI50: 1.71 µM (inactive)
[6]
  GI50: 2.73 µM (inactive)
[7]
  GI50: 1.77 µM (inactive)
[8]
  GI50: 2.38 µM (inactive)
[9]
  GI50: 1.57 µM (inactive)
[10]
  GI50: 3.28 µM (inactive)
[11]
  GI50: 0.333 µM (active)
[12]
  GI50: 0.975 µM (active)
[13]
  GI50: 1.86 µM (inactive)
[14]
  GI50: > 10 µM (inactive)
[15]
  GI50: 0.964 µM (active)
[16]
  GI50: 1.53 µM (inactive)
[17]
  GI50: 5.48 µM (inactive)
[18]
  GI50: 0.851 µM (active)
[19]
  GI50: 3.51 µM (inactive)
[20]
  GI50: 1.34 µM (inactive)

## CCCCCCCCCc1cc(-c2ccc(C=O)s2)sc1-c1ccc(C=O)s1
[1]
  GI50: 28.7 µM (inactive)
[2]
  GI50: 35.3 µM (inactive)
[3]
  GI50: 2.23 µM (inactive)
[4]
  GI50: 24.8 µM
[5]
  GI50: 11.5 µM (inactive)
[6]
  GI50: 26.2 µM (inactive)
[7]
  GI50: 22.6 µM (inactive)
[8]
  GI50: 40.5 µM (inactive)
[9]
  GI50: 3.04 µM (inactive)
[10]
  GI50: 20.1 µM (inactive)
[11]
  GI50: 16.7 µM (inactive)
[12]
  GI50: 37.8 µM (inactive)
[13]
  GI50: 11.4 µM (inactive)
[14]
  GI50: 8.81 µM (inactive)
[15]
  GI50: 34.8 µM (inactive)
[16]
  GI50: 15.7 µM (inactive)
[17]
  GI50: 29 µM (inactive)
[18]
  GI50: 6.47 µM (inactive)
[19]
  GI50: 10 µM (inactive)
[20]
  GI50: 7.26 µM (inactive)
